Results on 24 compounds are retold here after US20230102520A1, “INHIBITORS OF LOW MOLECULAR WEIGHT PROTEIN TYROSINE PHOSPHATASE (LMPTP) AND USES THEREOF” (Sanford Burnham Prebys Medical Discovery Institute, priority 2019, published 2023).

The assay concerns the target T1, human LMPTP-A (Homo sapiens, UniProt P24666).
T1 sequence (P24666 1-158): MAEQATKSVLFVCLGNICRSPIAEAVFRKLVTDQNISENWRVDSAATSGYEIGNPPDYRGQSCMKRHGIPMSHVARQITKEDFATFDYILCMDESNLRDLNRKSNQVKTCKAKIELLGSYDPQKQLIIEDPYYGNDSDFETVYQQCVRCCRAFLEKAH
Briefly: Enzyme Assay of Inhibition of LMPTP-A. The format is biochemical. To be noted: phosphatase assay, OMFP or pNPP substrate, 50 mM Bis-Tris pH 6.0, 37° C. Here is the method: Example B-1: Enzyme Assay of Inhibition of LMPTP-A
Phosphatase assays were performed in buffer containing 50 mM Bis-Tris, pH 6.0, 1 mM DTT and 0.01% Triton X-100 at 37° C. For assays conducted with 3-O-methylfluorescein phosphate (OMFP) as substrate, fluorescence was monitored continuously at λex=485 and λem=525 nm. For assays conducted with para-nitrophenylphosphate (pNPP) as substrate, the reaction was stopped by addition of 2× reaction volume of 1 M NaOH, and absorbance was measured at 405 nm. IC50 values of compounds disclosed herein were determined from plots of inhibitor concentration versus percentage of enzyme activity. For inhibitor selectivity assays, each PTP was incubated with either 0.4 mM OMFP or 5 mM pNPP in the presence of 40 μM compound or DMSO. […] For the inhibitor reversibility assay, 50 nM human LMPTP-A was pre-incubated with 10 μM of compound disclosed herein or DMSO for 5 min. The enzyme was diluted 100× in phosphatase assay buffer containing 0.4 mM OMFP and fluorescence was measured at the indicated time points.
For the compound `Cc1ccccc1-c1nc2c(N)ncn(Cc3c(Cl)ccnc3Cl)c-2n1` [3-[(2,4-dichloro(3-pyridyl))methyl]-8-(2-methylphenyl)-3-hydropurine-6-ylamine], the IC50 was below 1000 nM. In turn, `Cc1ccnc(C)c1Cn1cnc(N)c2nc(-c3ccccc3)nc1-2` [3-[(2,4-dimethyl(3-pyridyl))methyl]-8-phenyl-3-hydropurine-6-ylamine] returned an IC50 below 1000 nM. As for `Nc1ncn(Cc2c(Cl)ccnc2Cl)c2nc(Cc3ccc(F)cc3)nc1-2` [3-[(2,4-dichloro(3-pyridyl))methyl]-8-[(4-fluorophenyl)methyl]-3-hydropurine-6-ylamine], the IC50 is below 1000 nM.

In the case of `Nc1ncn(Cc2c(Cl)cncc2Cl)c2nc(C3C4CC5CC(C4)CC3C5)nc1-2` (stereo not drawn) [8-adamantan-2-yl-3-[(3,5-dichloro(4-pyridyl))methyl]-3-hydropurine-6-ylamine], the IC50 was below 1000 nM.

Consider `Nc1ncn(Cc2c(Cl)cncc2Cl)c2nc(-c3ccc4sccc4c3)nc1-2` [8-benzo[b]thiophen-5-yl-3-[(3,5-dichloro(4-pyridyl))methyl]-3-hydropurine-6-ylamine], for which the IC50 was below 1000 nM. In the case of `Cc1ccccc1-c1nc2c(N)ncn(Cc3c(C)ccnc3C)c-2n1` [3-[(2,4-dimethyl(3-pyridyl))methyl]-8-(2-methylphenyl)-3-hydropurine-6-ylamine] it was below 1000 nM; in that of `Nc1ncn(Cc2c(Cl)cncc2Cl)c2nc(-c3cc(F)ccc3F)nc1-2` [3-[(3,5-dichloro(4-pyridyl))methyl]-8-(2,5-difluorophenyl)-3-hydropurine-6-ylamine], below 1000 nM. For the compound `Cn1cnc2cc(-c3nc4c(N)ncn(Cc5c(Cl)cncc5Cl)c-4n3)ccc21` [3-[(3,5-dichloro(4-pyridyl))methyl]-8-(1-methylbenzimidazol-5-yl)-3-hydropurine-6-ylamine], the IC50 is below 1000 nM. On to `Nc1ncn(Cc2c(Cl)cncc2Cl)c2nc(Cc3ccc(F)cc3)nc1-2` [3-[(3,5-dichloro(4-pyridyl))methyl]-8-[(4-fluorophenyl)methyl]-3-hydropurine-6-ylamine], for which the IC50 was below 1000 nM. `CCN(CC)Cc1nc2c(N)ncn(Cc3c(Cl)cncc3Cl)c-2n1` [({6-amino-3-[(3,5-dichloro(4-pyridyl))methyl](3-hydropurin-8-yl)}methyl)diethylamine] gave an IC50 of 1000 to 20000 nM. Compound `COc1cncc(OC)c1Cn1cnc(N)c2nc(-c3ccccc3C)nc1-2` [3-[(3,5-dimethoxy(4-pyridyl))methyl]-8-(2-methylphenyl)-3-hydropurine-6-ylamine] yielded a half-inhibitory concentration (IC50) below 1000 nM. Consider `COc1cccc(OC)c1-c1nc2c(N)ncn(Cc3c(Cl)cnc(Cl)c3Cl)c-2n1` [8-(2,6-dimethoxyphenyl)-3-[(2,3,5-trichloro(4-pyridyl))methyl]-3-hydropurine-6-ylamine], for which the IC50 is below 1000 nM. Compound `Cc1ncsc1Cn1cnc(N)c2nc(-c3ccccc3)nc1-2` [3-[(4-methyl(1,3-thiazol-5-yl))methyl]-8-phenyl-3-hydropurine-6-ylamine] displayed a half-maximal inhibitory concentration (IC50) of 1000 to 20000 nM.

Consider `Nc1ncn(Cc2c(Cl)cncc2Cl)c2nc(-c3cnccc3C(F)(F)F)nc1-2` [3-[(3,5-dichloro(4-pyridyl))methyl]-8-[4-(trifluoromethyl)(3-pyridyl)]-3-hydropurine-6-ylamine], for which the IC50 is below 1000 nM. For `Nc1ncn(Cc2c(Cl)ccnc2Cl)c2nc(-c3ccc4c(c3)CCCC4)nc1-2` [3-[(2,4-dichloro(3-pyridyl))methyl]-8-(2-5,6,7,8-tetrahydronaphthyl)-3-hydropurine-6-ylamine], the IC50 was below 1000 nM. For `Cc1ccccc1-c1nc2c(N)ncn(Cc3c(Br)ccnc3Cl)c-2n1` [3-[(4-bromo-2-chloro(3-pyridyl))methyl]-8-(2-methylphenyl)-3-hydropurine-6-ylamine], the half-maximal inhibitory concentration (IC50) is below 1000 nM. As for `Nc1ncn(Cc2c(Br)cncc2Br)c2nc(-c3cccc4c3CCCC4)nc1-2` [3-[(3,5-dibromo(4-pyridyl))methyl]-8-(5,6,7,8-tetrahydronaphthyl)-3-hydropurine-6-ylamine], the IC50 is above 20000 nM. `Cc1ccccc1-c1nc2c(N)ncn(Cc3c(Cl)nc(N)nc3Cl)c-2n1` [3-[(2-amino-4,6-dichloropyrimidin-5-yl)methyl]-8-(2-methylphenyl)-3-hydropurine-6-ylamine] came in with an IC50 below 1000 nM. In the case of `Nc1ncn(Cc2c(Cl)cncc2Cl)c2nc(-c3ccc4[nH]cnc4c3)nc1-2` [8-benzimidazol-5-yl-3-[(3,5-dichloro(4-pyridyl))methyl]-3-hydropurine-6-ylamine], the IC50 was below 1000 nM. Compound `Nc1ncn(Cc2c(Br)cncc2Br)c2nc(-c3cnn4ccccc34)nc1-2` [3-[(3,5-dibromo(4-pyridyl))methyl]-8-(8-hydropyrazolo[1,5-a]pyridin-3-yl)-3-hydropurine-6-ylamine] registered an IC50 below 1000 nM.

The compound `Cc1ccccc1-c1nc2c(N)nc(C)n(Cc3c(Cl)ccnc3Cl)c-2n1` [3-[(2,4-dichloro(3-pyridyl))methyl]-2-methyl-8-(2-methylphenyl)-3-hydropurine-6-ylamine] displayed an IC50 of 1000 to 20000 nM. Regarding `Cc1ccccc1-c1nc2c(N)ncn(Cc3c(Br)cncc3Br)c-2n1` [3-[(3,5-dibromo(4-pyridyl))methyl]-8-(2-methylphenyl)-3-hydropurine-6-ylamine], the IC50 is below 1000 nM.

As to `Cc1cc(-c2nc3c(N)ncn(Cc4c(Cl)cncc4Cl)c-3n2)n(C)n1` [3-[(3,5-dichloro(4-pyridyl))methyl]-8-(1,3-dimethylpyrazol-5-yl)-3-hydropurine-6-ylamine], the IC50 was below 1000 nM.

Turning to `Cc1ccccc1-c1nc2c(N)ncn(Cc3c(Br)cnn3C)c-2n1` [3-[(4-bromo-1-methylpyrazol-5-yl)methyl]-8-(2-methylphenyl)-3-hydropurine-6-ylamine], the IC50 was below 1000 nM.

By IC50 is commonly meant the concentration that gives 50% inhibition. Lower therefore signals inhibition by little substance.
